From ChEMBL document CHEMBL1201862, “PubChem BioAssay data set” (2004)
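Grown in 96-well plates, cells were treated for 48 hours with each compound at five concentrations. Insufficient inhibition: endpoint recorded as highest concentration tested. Here, GI50 denotes the concentration required for 50% inhibition of growth.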 The source made the active and inactive calls. Rule as the data show it: active = GI50 up to about 1.1 µM and inactive = higher.

Legend:
Experiment in all cases: NCI tumour cell line growth inhibition, 48 h
LOX IMVI = system: LOX IMVI
M14 = system: M14
NCI-H23 = system: NCI-H23
PC-3 = system: PC-3
KM12 = system: KM12
MDA-MB-231 = system: MDA-MB-231
HL-60 = system: HL-60
SK-OV-3 = system: SK-OV-3
SK-MEL-28 = system: SK-MEL-28
T47D = system: T47D
EKVX = system: EKVX
NCI-H522 = system: NCI-H522
BT-549 = system: BT-549
SK-MEL-5 = system: SK-MEL-5
SN12C = system: SN12C
COLO 205 = system: COLO 205
ACHN = system: ACHN
NCI-H226 = system: NCI-H226
SK-MEL-2 = system: SK-MEL-2
Hs-578T = system: Hs-578T

Measured: GI50

CCN(CC)CCC(=O)NC1c2ccc(Cl)cc2Oc2c(C)cccc21 (stereo not given)
inactive: LOX IMVI 14.5 µM | M14 17.5 µM | NCI-H23 17.4 µM | PC-3 13.2 µM | KM12 15.6 µM | MDA-MB-231 20.8 µM | HL-60 13.9 µM | SK-OV-3 17.6 µM | SK-MEL-28 14.6 µM | T47D 14 µM | EKVX 13.4 µM | NCI-H522 17.1 µM | BT-549 13.9 µM | SK-MEL-5 13.3 µM | SN12C 17.3 µM | COLO 205 18.6 µM

C=C(COC(=O)C(C)C)[C@H]1Oc2ccc(C(C)=O)cc2[C@@H]1OC(=O)C(C)C
inactive: LOX IMVI > 100 µM | ACHN > 100 µM | M14 > 100 µM | NCI-H23 > 100 µM | NCI-H226 > 100 µM | PC-3 > 100 µM | KM12 > 100 µM | MDA-MB-231 > 100 µM | HL-60 53.6 µM | SK-OV-3 > 100 µM | SK-MEL-2 > 100 µM | SK-MEL-28 > 100 µM | T47D > 100 µM | EKVX > 100 µM | BT-549 > 100 µM | Hs-578T 42.6 µM | SK-MEL-5 > 100 µM | SN12C > 100 µM | COLO 205 > 100 µM

O=C(CN1c2ccccc2Sc2ccccc21)n1cnc2ccccc21
inactive: LOX IMVI 95.3 µM | ACHN > 100 µM | M14 59.2 µM | NCI-H23 77.3 µM | NCI-H226 45 µM | PC-3 70.6 µM | KM12 59.8 µM | MDA-MB-231 53.2 µM | HL-60 89.3 µM | SK-OV-3 47.1 µM | SK-MEL-2 > 100 µM | SK-MEL-28 > 100 µM | T47D 49.8 µM | EKVX > 100 µM | BT-549 > 100 µM | Hs-578T > 100 µM | SK-MEL-5 56.9 µM | SN12C > 100 µM | COLO 205 92.3 µM

CO/C(=N\N=C\c1cccc(Cl)c1)c1ccncc1
inactive: LOX IMVI > 10 µM | ACHN > 10 µM | M14 > 10 µM | NCI-H23 > 10 µM | NCI-H226 > 10 µM | PC-3 > 10 µM | KM12 > 10 µM | MDA-MB-231 > 10 µM | HL-60 > 10 µM | SK-MEL-2 > 10 µM | T47D > 10 µM | EKVX > 10 µM | NCI-H522 > 10 µM | BT-549 > 10 µM | SN12C > 10 µM | COLO 205 > 10 µM

CCC1OC2(C)CC(C#N)(C#N)C1(C#N)C(=N)O2 (stereo not given)
inactive: LOX IMVI > 100 µM | ACHN > 100 µM | M14 > 100 µM | NCI-H23 > 100 µM | PC-3 > 100 µM | KM12 > 100 µM | MDA-MB-231 > 100 µM | HL-60 > 100 µM | SK-OV-3 > 100 µM | SK-MEL-2 > 100 µM | SK-MEL-28 > 100 µM | T47D > 100 µM | EKVX > 100 µM | BT-549 > 100 µM | Hs-578T > 100 µM | SK-MEL-5 > 100 µM | SN12C > 100 µM | COLO 205 > 100 µM

CS(=O)(=O)CCC(N)P(=O)(O)O (stereo not given)
inactive: LOX IMVI > 100 µM | ACHN > 100 µM | M14 > 100 µM | NCI-H23 > 100 µM | NCI-H226 > 100 µM | PC-3 > 100 µM | KM12 > 100 µM | HL-60 > 100 µM | SK-OV-3 > 100 µM | SK-MEL-2 > 100 µM | SK-MEL-28 > 100 µM | T47D > 100 µM | EKVX > 100 µM | NCI-H522 > 100 µM | BT-549 > 100 µM | Hs-578T > 100 µM | SK-MEL-5 > 100 µM | SN12C > 100 µM | COLO 205 > 100 µM

COC(=O)c1ccc(C)cc1/C=C1\Cc2ccc(C)cc2C1=O
inactive: LOX IMVI 12.9 µM | ACHN 30.8 µM | M14 16.1 µM | NCI-H23 23.9 µM | NCI-H226 10.1 µM | PC-3 17.9 µM | KM12 11.6 µM | HL-60 4.78 µM | SK-MEL-28 16.6 µM | T47D 17.1 µM | EKVX 26.2 µM | NCI-H522 17.1 µM | BT-549 4.91 µM | Hs-578T 23.1 µM | SK-MEL-5 13.9 µM | SN12C 16.7 µM | COLO 205 8.63 µM

CN1CCN(C(=S)N(C(=O)c2cccs2)c2ccccc2)CC1
inactive: LOX IMVI > 100 µM | ACHN > 100 µM | M14 > 100 µM | NCI-H23 > 100 µM | NCI-H226 > 100 µM | KM12 > 100 µM | MDA-MB-231 > 100 µM | HL-60 > 100 µM | SK-MEL-2 > 100 µM | SK-MEL-28 > 100 µM | T47D > 100 µM | NCI-H522 > 100 µM | BT-549 > 100 µM | Hs-578T > 100 µM | SK-MEL-5 > 100 µM | SN12C > 100 µM | COLO 205 > 100 µM

Cc1ccc(Cc2n[nH]c(=O)[nH]2)cc1
inactive: LOX IMVI > 100 µM | ACHN > 100 µM | M14 > 100 µM | NCI-H23 > 100 µM | NCI-H226 > 100 µM | PC-3 > 100 µM | KM12 > 100 µM | MDA-MB-231 > 100 µM | HL-60 > 100 µM | SK-OV-3 > 100 µM | SK-MEL-2 > 100 µM | SK-MEL-28 > 100 µM | T47D > 100 µM | EKVX > 100 µM | BT-549 > 100 µM | Hs-578T > 100 µM | SK-MEL-5 > 100 µM | SN12C > 100 µM | COLO 205 > 100 µM

CO/N=C(\C)c1cccc(Nc2nc3ccccc3c3occc23)c1
inactive: LOX IMVI 15.2 µM | ACHN 14 µM | M14 16.7 µM | NCI-H226 1.56 µM | PC-3 14.5 µM | KM12 7.59 µM | MDA-MB-231 10.4 µM | HL-60 27.7 µM | SK-OV-3 14.1 µM | SK-MEL-28 14.3 µM | T47D 11.1 µM | EKVX 13.6 µM | BT-549 13.5 µM | Hs-578T 10.9 µM | SK-MEL-5 14.8 µM | SN12C 13.3 µM | COLO 205 12.1 µM

COc1cc(OC)cc(-c2cc(=O)c3c(OC)c(OC)c(OC)c(OC)c3o2)c1
inactive: LOX IMVI 35.5 µM | ACHN 27.2 µM | M14 37.2 µM | NCI-H23 52.1 µM | NCI-H226 32.1 µM | MDA-MB-231 59.7 µM | HL-60 7.26 µM | SK-OV-3 5.93 µM | SK-MEL-2 18 µM | SK-MEL-28 40.3 µM | T47D 20.9 µM | EKVX 29.2 µM | NCI-H522 21.2 µM | BT-549 41.1 µM | Hs-578T 29.3 µM | SK-MEL-5 19.8 µM | SN12C 26.4 µM | COLO 205 16.3 µM
